Earlier results as cited in US20240398903A1, “COMPOSITION AND METHODS OF TREATMENT USING […] - ENHANCED SUPPLEMENTATION” (Xygenyx Inc., priority 2023, published 2024).

What was measured:
[1] = mice
skin [2] = conditions: penetration enhancer for transdermal drugs
[3] = test system: wide dynamic range neurons in the ventroposterolateral nucleus of the thalamus; conditions: in vivo
[4] = in vivo
skin [5] = conditions: topical, concentrations 0.5-5%
[6] = as compared to α-tocopherol (factor 1.0)
[7] = even when dietary intake occurs in equal portions
[8] = in vivo; remark: listed apart in the source

Question: For CC(CN)C(=O)O [L-BAIBA, L-beta-aminoisobutyric acid], which tolerated dose [1] is on record?
Answer: 10-100 mg/kg of bodyweight

Question: With CC(C)[C@@H]1CC[C@@H](C)C[C@H]1O [Menthol] as the compound, how does the “increase of drug uptake via the transdermal route (factor)” value (skin [2]) read?
Answer: ≥ 10

Question: Which “power in mediating pain relative to morphine” value [3] does the source give for CCCCCc1cc(O)c2c(c1)OC(C)(C)C1CCC(C)=CC21 (stereo not drawn) [THC, Δ-9-tetrahydrocannabinol] here?
Answer: ten times more powerful than morphine

Question: With CCNC(=O)CC[C@H](N)C(=O)O [Theanine] as the compound, how does the “dose considered safe and well-tolerated” value [4] read?
Answer: up to 400 mg per day

Question: With C=CCCCCCCCCC(=O)N[C@@H](Cc1ccccc1)C(=O)O [UP, Undecylenoyl phenylalanine] as the compound, how does the “time of treatment to skin lightening effects” value (skin [5]) read?
Answer: ≥ 7 days

Question: With CC12CCC(CC1)C(C)(C)O2 [eucalyptol, 1,8-epoxy-p-menthane] as the compound, how does the “increase of drug uptake via the transdermal route (factor)” value (skin [2]) read?
Answer: more than 10

Question: What does the source list for Cc1c(C)c2c(c(C)c1O)CC[C@@](C)(CCC[C@H](C)CCC[C@H](C)CCCC(C)C)O2 [α-tocopherol]?
Answer: reducing the risk of coronary disease (dietary supplementation, doses up to 400 IU/day): up to 34%; reduce the risk of developing neurodegenerative diseases such as Alzheimer's Syndrome or dementia (dietary supplementation, doses up to 400 IU/day, controlled trials): ≤ 24%; reduction in the development of age-related cataracts (in combination with 10-20 mg β-carotene and 400-500 mg vitamin C): 23%; relative biological activity [6]: 1.0

Question: For Cc1cc(O)c(C)c2c1O[C@](C)(CCC[C@H](C)CCC[C@H](C)CCCC(C)C)CC2 [β-tocopherol], which relative biological activity [6] is on record?
Answer: 0.5

Question: Which results are given for Cc1c(O)cc2c(c1C)O[C@](C)(CCC[C@H](C)CCC[C@H](C)CCCC(C)C)CC2 [γ-tocopherol]?
Answer: relative biological activity [6]: 0.1; concentration in vivo relative to α-tocopherol [7]: roughly 10%

Question: Which relative biological activity [6] does the source give for Cc1cc(O)cc2c1O[C@](C)(CCC[C@H](C)CCC[C@H](C)CCCC(C)C)CC2 [δ-tocopherol] here?
Answer: 0.03

Question: Which biological half-life [8] does the source give for “HGH: hormone comprising a peptide chain that is synthesized in the pituitary gland” here?
Answer: 10-20 minutes
